Source: patent US6124308A, “Optically active phenyl pyrimidine derivatives as analgesic agent” (priority 1995, dated 2000)
Where a name gives a salt, the structure may show the parent alone. Read-outs that look alike come from different tables or passages of the source.

Legend:
[1] = Solubility of salts in water and pH (drug addition method); assay type: physicochemical; conditions: water, room temperature
Description: The solubility was determined by means of the drug addition method. At room temperature the drug was added to 0.25 ml deionised water. The sample was diluted to 2 ml for pH determination. A single determination was carried out.

[2] = Melting profile / stability of salts (Mettler hotstage and DSC); assay type: physicochemical; conditions: for Hotstage/DSC results indicates (racemisation on heating) / temperature of racemisation indicated by hotstage/DSC: 10° C./min
Description: Events on heating were monitored visually using a Mettler hotstage and a microscope. A DSC scan was then used to confirm the observed events and identify the type of event. The DSC experiments were performed using the Perkin Elmer DSC-7 system with a TAC7/DX recorder. In order to capture as many events as possible a scan irate of 10° C./min and 1-2 mg sample size was used. DSC sweeps between 40° C. and 400° C. or from and to 50° C. outside any event observed on the hot stage were carried out on one or two samples. The samples and reference (air) were placed in 50 μl aluminium pans with holes.

[3] = test system: maximal electroshock seizure; experiment: Maximal electroshock test, rats, i.v., stronger current (200 mA); assay type: in vivo; conditions: Rattus norvegicus, iv, 1 h
Text: A stronger current (200 mA) was used compared with that (20 mA) used in the other procedures.

[4] = test system: hind-limb extension (maximal electroshock seizure); experiment: Maximal electroshock test, rats, i.p., duration of action; assay type: in vivo, rat; conditions: for ED50: Rattus norvegicus, ip; for ED50 (95% limits): i.p.
[5] = test system: PGE2-induced acute hyperalgesia; experiment: Effects on the development of PGE2-induced acute hyperalgesia (paw pressure); assay type: in vivo, rat; conditions: 1 h before PGE2 (100 ng), n=5
Description: Effects on the development of PGE2 -induced acute hyperalgesia
Reaction times to paw pressure were measured 3 h after PGE2 injection. Ataxia was scored at the same time by observation of the rats placed in an arena.

[6] = test system: whole-cell sodium currents in cultured rat hippocampal neurones; experiment: Whole-cell sodium currents in cultured embryonic rat hippocampal neurones, patch-clamp; assay type: cell-based; conditions: for IC50: 20 msec pulses to -10 mV from holding potential -60 mV, read-out: IC50 (reduction of peak sodium current); for reduction of peak sodium current: holding potential -60 mV
Description: (b) Cultured embryonic rat hippocampal neurones
Sodium currents were elicited by the application of 20 msec dipolarisng pulses, thereby lowering membrane potential to -10 mV from a holding potential of -60 mV.

[7] = test system: veratrine-evoked glutamate release from rat brain slices; experiment: Inhibition of veratrine-evoked glutamate release; assay type: cell-based
[8] = target: T1, rat type IIA sodium channels (Rattus norvegicus, UniProt P04775); experiment: Recombinant rat type IIA sodium channels in chinese hamster ovary cells, whole-cell recording; assay type: cell-based; conditions: for IC50: IC50 (inhibition of Na+ currents)
T1 construct: no beta subunit mentioned
Text: The IC50 's at two different holding potentials (Vh) were as follows: […]

[9] = test system: maximal electroshock seizure; experiment: Maximal electroshock test, mice, different routes of administration; assay type: in vivo, mouse; conditions: Mus musculus, mice, 1 hour, read-out: ED50 (95% limits)
[10] = Half-life in male rats; assay type: in vivo, rat
[11] = target: T2, rat liver DHFR (Rattus norvegicus, UniProt Q920D2); experiment: Activity against dihydrofolate reductase (DHFR), spectrophotometric assay; assay type: biochemical; conditions: at 100 μM
T2 construct: rat liver DHFR; from tissue; host or cells: rat liver
T2 sequence (Q920D2 1-187): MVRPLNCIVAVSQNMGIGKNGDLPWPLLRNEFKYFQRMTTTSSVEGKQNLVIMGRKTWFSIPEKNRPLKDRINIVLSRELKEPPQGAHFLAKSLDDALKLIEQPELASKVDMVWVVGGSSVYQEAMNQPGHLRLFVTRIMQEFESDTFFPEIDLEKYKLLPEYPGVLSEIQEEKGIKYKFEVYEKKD

[12] = test system: striatal dopamine in MPTP injected C57B1/6 mice; experiment: MPTP induced neurotoxic model, striatal dopamine levels; assay type: in vivo, mouse
Description: Six-week old male C57B1/6 mice (Japan SLC Co., Hamamatu) were housed ten per case in a temperature-controlled room under a 12-hours light/12-hours dark cycle with free access to food and water.
Mice received i.p. injections of the R(-) enantiomer and the S(+) enantiomer (30 mg/kg) in olive oil starting 12 hours before MPTP injection and every 12 hours for the next 5-injections. Control mice received olive oil only.
Mice receive s.c. injection of MPTP-HCl (40 mg of free base per kg; Research Biochemicals) in saline. Control mice received saline only.
HPLC with electrochemical detection was used to measure striatal levels of dopamine (J.C. Garcia': Journal of Chromatography B. 656 (1994) 77-80).
Seven days after the MPTP injection, mice ([…]) were killed and striata were dissected out, immediately frozen, and stored at -80° C. until analysis. On the day of the assay, tissue samples were sonicated in 10 vol(wt/vol) of 0.1M perchloric acid /1.9 mM sodium hydrogen sulfite containing 1.6μg/ml 3,4-dihydroxybenzylamine hydrobromide(Sigma) as an internal standard. After centrifugation (2,800× g for 10 min at room temperature) and filtration (0.5 μm; Millipore membrane filter), 10 μl of supernatant was injected onto an Inertsil ODS3 column (4.6×250 mm; GL Science, Tokyo). The mobile phase consisted of 88% 115 mM NaH2 PO4 /0.178 mM Na2 EDTA /0.92 mM 1-octanesulfonic acid (pH=2.6) solution and 12% ethanol. F low rate was 1.0 ml/min. Peaks were detected by a Shimazu electrochemical detector LECD-6A(700 mV).

T1 sequence (P04775 whole entry): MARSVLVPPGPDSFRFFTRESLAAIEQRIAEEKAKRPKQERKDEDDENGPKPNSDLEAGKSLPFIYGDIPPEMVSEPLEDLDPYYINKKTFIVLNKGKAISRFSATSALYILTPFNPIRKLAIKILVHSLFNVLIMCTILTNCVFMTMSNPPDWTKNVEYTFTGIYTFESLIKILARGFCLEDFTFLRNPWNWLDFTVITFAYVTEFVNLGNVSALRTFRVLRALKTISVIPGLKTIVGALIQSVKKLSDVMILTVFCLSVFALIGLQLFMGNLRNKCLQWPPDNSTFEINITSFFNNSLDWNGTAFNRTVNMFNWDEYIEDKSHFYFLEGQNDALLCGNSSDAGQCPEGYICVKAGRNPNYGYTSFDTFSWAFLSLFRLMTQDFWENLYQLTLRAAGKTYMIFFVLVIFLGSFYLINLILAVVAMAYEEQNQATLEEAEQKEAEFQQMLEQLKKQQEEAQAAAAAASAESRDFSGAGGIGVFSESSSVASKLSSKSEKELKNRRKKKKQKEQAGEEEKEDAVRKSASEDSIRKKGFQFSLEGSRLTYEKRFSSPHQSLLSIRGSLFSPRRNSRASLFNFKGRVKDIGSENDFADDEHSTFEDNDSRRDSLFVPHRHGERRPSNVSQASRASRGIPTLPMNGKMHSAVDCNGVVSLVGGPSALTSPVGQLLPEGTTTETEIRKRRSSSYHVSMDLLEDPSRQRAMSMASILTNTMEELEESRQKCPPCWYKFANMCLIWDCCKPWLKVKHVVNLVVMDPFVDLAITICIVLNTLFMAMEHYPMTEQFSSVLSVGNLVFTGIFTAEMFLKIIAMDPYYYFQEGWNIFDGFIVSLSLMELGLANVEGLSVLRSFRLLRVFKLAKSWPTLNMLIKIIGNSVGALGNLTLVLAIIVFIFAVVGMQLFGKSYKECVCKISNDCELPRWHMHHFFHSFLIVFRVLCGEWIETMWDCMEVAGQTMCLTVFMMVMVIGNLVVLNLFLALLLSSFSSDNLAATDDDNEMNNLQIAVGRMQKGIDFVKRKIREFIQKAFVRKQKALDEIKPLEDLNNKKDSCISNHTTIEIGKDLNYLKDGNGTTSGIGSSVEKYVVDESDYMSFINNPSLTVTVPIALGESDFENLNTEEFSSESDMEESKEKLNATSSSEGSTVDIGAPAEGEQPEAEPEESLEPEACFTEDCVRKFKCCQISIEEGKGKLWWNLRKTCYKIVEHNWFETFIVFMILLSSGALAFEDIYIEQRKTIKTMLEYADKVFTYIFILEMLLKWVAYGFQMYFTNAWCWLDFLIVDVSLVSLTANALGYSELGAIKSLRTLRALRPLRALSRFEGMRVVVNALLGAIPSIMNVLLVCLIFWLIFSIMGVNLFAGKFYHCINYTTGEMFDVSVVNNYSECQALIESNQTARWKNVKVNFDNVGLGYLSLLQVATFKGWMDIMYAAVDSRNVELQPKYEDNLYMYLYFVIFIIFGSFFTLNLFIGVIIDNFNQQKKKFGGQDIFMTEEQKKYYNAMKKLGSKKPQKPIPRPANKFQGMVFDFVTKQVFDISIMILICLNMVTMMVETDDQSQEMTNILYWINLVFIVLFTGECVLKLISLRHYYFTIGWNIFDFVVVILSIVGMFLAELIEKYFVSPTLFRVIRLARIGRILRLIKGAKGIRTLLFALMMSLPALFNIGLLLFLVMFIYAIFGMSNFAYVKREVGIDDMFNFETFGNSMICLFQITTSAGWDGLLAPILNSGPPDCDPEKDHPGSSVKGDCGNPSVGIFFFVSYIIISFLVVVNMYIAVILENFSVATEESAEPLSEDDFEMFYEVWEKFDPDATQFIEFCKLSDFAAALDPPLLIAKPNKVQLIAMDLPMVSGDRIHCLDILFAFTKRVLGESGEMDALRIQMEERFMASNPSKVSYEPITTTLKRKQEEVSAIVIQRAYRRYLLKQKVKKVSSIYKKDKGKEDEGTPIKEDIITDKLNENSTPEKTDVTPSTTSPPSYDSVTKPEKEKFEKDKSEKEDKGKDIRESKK

In the case of `Nc1nc(N)c(-c2cccc(Cl)c2Cl)c(CF)n1` [(L)-Lactate], the “pH of the solution” value [1] is reported as 3.43, the “solubility of four salts” value [1] is reported as “less than 1 mg/ml” and the “Hotstage/DSC results indicates (racemisation on heating)” value (“Hotstage/DSC results indicates” below) [2] is reported as “Racemisation”. For the same compound, the “temperature of racemisation indicated by hotstage/DSC” value (shortened to “temperature … by hotstage/DSC”) [2] was 143 °C.

For `Nc1nc(N)c(-c2cccc(Cl)c2Cl)c(CF)n1` [Acetate], the “pH of the solution” value [1] was 5.54, the solubility ([1]; read-out: solubility of four salts) was less than 1 mg/mL and the “Hotstage/DSC results indicates” value [2] was “Racemisation”. For the same compound, the “temperature … by hotstage/DSC” value [2] was roughly 200 °C.

For `Nc1nc(N)c(-c2cccc(Cl)c2Cl)c(CF)n1` [Benzenesulphonate], the “pH of the solution” value [1] was 2.43 and the “stability profile suggested by the tests” value [2] was “could provide good stability”.

With `Nc1nc(N)c(-c2cccc(Cl)c2Cl)c(CF)n1` [Benzoate] the “pH of the solution” value [1] was 4.17, the “solubility of four salts” value [1] was “less than 1 mg/ml” and the “Hotstage/DSC results indicates” value [2] was “unstable”.

For `Nc1nc(N)c(-c2cccc(Cl)c2Cl)c(CF)n1` [Citrate], the “pH of the solution” value [1] was 3.99 and the “stability profile suggested by the tests” value [2] was “could provide good stability”.

For `Nc1nc(N)c(-c2cccc(Cl)c2Cl)c(CF)n1` [Fumarate], the “pH of the solution” value [1] was 3.04, the “Hotstage/DSC results indicates” value [2] was “Racemisation” and the “temperature … by hotstage/DSC” value [2] was 127 °C.

In the case of `Nc1nc(N)c(-c2cccc(Cl)c2Cl)c(CF)n1` [HCl, R(-)-2,4-diamino-5-(2,3-dichlorophenyl)-6-fluoromethyl Pyrimidine Monohydrochloride], the “pH of the solution” value ([1]; Monohydrochloride) is reported as 3.61, the solubility ([1]; solubility of the equivalent base over or around 25 mg/ml) is reported as roughly 25 mg/mL and the “Hotstage/DSC results indicates” value ([2]; Monohydrochloride) is reported as “Racemisation”. The “temperature … by hotstage/DSC” value ([2]; Monohydrochloride) was 243 °C.

For `Nc1nc(N)c(-c2cccc(Cl)c2Cl)c(CF)n1` [Isethionate, R(-)-2,4-diamino-5-(2,3-dichlorophenyl)-6-fluoromethyl Pyrimidine Isethionate], the ED50 [3] was 1.5 mg/kg, the “pH of the solution” value [1] was 1.67 and the “solubility of the equivalent base over or around 25 mg/ml” value (shortened to “solubility … over or around 25 mg/ml”) [1] was “around 25 mg/ml”. For the same compound, the ED50 ([4]; 2 h, read-out: ED50 at 2 hrs (isethionate salt versus base), i.p., 2 hrs, calculated as the base, p<0.05) was 1.8 mg/kg.

In the case of `Nc1nnc(-c2cccc(Cl)c2Cl)c(N)n1` [Lamotrigine, 3,5-diamino-6-(2,3-dichlorophenyl)-1,2,4-triazine, reference compound], the ED50 ([5]; Rattus norvegicus, po, read-out: Analgesia ED50 (95% limits)) is reported as 34.8 mg/kg, the ED50 [3] is reported as 2.5 mg/kg and the IC50 ([6]; Rattus norvegicus, Hippocampal neurone) is reported as 16 µM. The “reduction of peak sodium current” value [6] was “concentration-dependent reduction of peak sodium current”, the IC50 ([7]; Rattus norvegicus) was 21 µM and the IC50 ([8]; Vh = -60 mV) was 98 µM. The IC50 ([8]; Vh = -90 mV) was 413 µM, the “inhibition of Na+ currents” value ([8]; R(-)enantiomer 1-500 μM) was “inhibition of Na^+ currents in a concentration-dependent and voltage-dependent manner” and the ED50 ([4]; rats, 0.5 hours, read-out: ED50 (95% limits)) was 2.7 mg/kg. It also gave an ED50 ([4]; rats, 1 hour, read-out: ED50 (95% limits)) of 3.3 mg/kg, an ED50 ([4]; rats, 2 hours, read-out: ED50 (95% limits)) of 2.7 mg/kg and an ED50 ([4]; rats, 4 hours, read-out: ED50 (95% limits)) of 2.3 mg/kg. For the same compound, the ED50 ([4]; rats, 8 hours, read-out: ED50 (95% limits)) was 4.8 mg/kg, the ED50 ([4]; rats, 24 hours, read-out: ED50 (95% limits)) was 7.1 mg/kg and the ED50 ([9]; ip, i.p.) was 2.3 mg/kg. The ED50 ([9]; po, p.o.) was 3.3 mg/kg and the ED50 ([9]; sc, s.c.) was 1.8 mg/kg.

In the case of `Nc1nc(N)c(-c2cccc(Cl)c2Cl)c(CF)n1` [Malonate], the “pH of the solution” value [1] is reported as 3.2 and the “stability profile suggested by the tests” value [2] is reported as “could provide good stability”.

With `Nc1nc(N)c(-c2cccc(Cl)c2Cl)c(CF)n1` [Methanesulphonate, R(-)-2,4-diamino-5-(2,3-dichlorophenyl)-6-fluoromethyl Pyrimidine Methanesulphonate] the “pH of the solution” value [1] was 3.33, the “solubility … over or around 25 mg/ml” value [1] was “around 25 mg/ml” and the “stability profile suggested by the tests” value [2] was “could provide good stability”. For the same compound, the “Hotstage/DSC results indicates” value [2] was “Racemisation” and the “temperature … by hotstage/DSC” value [2] was 240 °C.

In the case of `Nc1nc(N)c(-c2cccc(Cl)c2Cl)c(CF)n1` [Naphthalenedisulphonate], the “solubility of four salts” value [1] is reported as “less than 1 mg/ml” and the “stability profile suggested by the tests” value [2] is reported as “could provide good stability”.

In the case of `Nc1nc(N)c(-c2cccc(Cl)c2Cl)c(CF)n1` [Phosphate], the “pH of the solution” value [1] is reported as 2.34, the “solubility … over or around 25 mg/ml” value [1] is reported as “around 25 mg/ml” and the “stability profile suggested by the tests” value [2] is reported as “could provide good stability”.

For `Nc1nc(N)c(-c2cccc(Cl)c2Cl)c(CF)n1` [S(+)enantiomer, S(+)-2,4-diamino-5-(2,3-dichlorophenyl)-6-fluoromethyl pyrimidine, reference compound], the “half-life (t1/2)” value [10] was 3.1 h, the “Analgesia ED50 (95% limits)” value ([5]; p.o.) was 50.1 (39.2-70.5) mg/kg and the IC50 [6] was 20 µM. For the same compound, the “reduction of peak sodium current” value [6] was “concentration-dependent reduction of peak sodium current”, the “inhibition of veratrine-evoked glutamate release” value ([7]; at 10 μM) was 0% and the “inhibition of rat liver DHFR” value [11] was 33%. The “% protection” value ([12]; 30 mg/kg i.p. 6 times, MPTP 40 mg/kg s.c.) was 20.3%, the “Dopamine content in the striatum” value ([12]; 30 mg/kg i.p. 6 times, MPTP 40 mg/kg s.c., day 7) was 7.99 ± 1.55 μg/g wet tissue and the “% mortality” value ([12]; 30 mg/kg i.p., day -1 to 7) was 0%. For the same compound, the “ED50 (95% limits)” value ([4]; rats, 0.5 hours, 30 min) was 17.6 (11.6-26.4) mg/kg, the “ED50 (95% limits)” value ([4]; rats, 1 hour, 60 min) was 19.0 (12.7-28.5) mg/kg and the “ED50 (95% limits)” value ([4]; rats, 2 hours, 120 min) was 30.7 (20.9-45.3) mg/kg. For the same compound, the “ED50 (95% limits)” value ([4]; rats, 4 hours, 240 min) was 87.3 (47.7-168) mg/kg.

For `Nc1nc(N)c(-c2cccc(Cl)c2Cl)c(CF)n1` [Succinate], the “pH of the solution” value [1] was 4.09, the “Hotstage/DSC results indicates” value [2] was “Racemisation” and the “temperature … by hotstage/DSC” value [2] was 81 °C.

With `Nc1nc(N)c(-c2cccc(Cl)c2Cl)c(CF)n1` [Sulphate] the “pH of the solution” value [1] was 1.92, the “solubility … over or around 25 mg/ml” value [1] was “around 25 mg/ml” and the “stability profile suggested by the tests” value [2] was “could provide good stability”. For the same compound, the “Hotstage/DSC results indicates” value [2] was “Racemisation” and the “temperature … by hotstage/DSC” value [2] was 194 °C.

For `Nc1nc(N)c(-c2cccc(Cl)c2Cl)c(CF)n1` [Tartrate], the “pH of the solution” value [1] was 3.48 and the “stability profile suggested by the tests” value [2] was “could provide good stability”.

With `Nc1nc(N)c(-c2cccc(Cl)c2Cl)c(CF)n1` [Toluenesulphonate] the “stability profile suggested by the tests” value [2] was “could provide good stability”.
